Blank lines part the entries; values can stand above or below the compound they belong to.
Legend:
[1] = target: T1, CCR2 (Homo sapiens, UniProt P41597); test: CCR2 receptor membrane binding assay ([125I]MCP-1, THP-1 cell membranes, SPA beads); conditions: THP-1 membranes, [125I]MCP-1, bound radioactivity after 8 h; read-out: hKi [nM](CCR2)
T1 construct: Membranes were prepared from THP-1 cells; endogenous in cells; host or cells: THP-1 (human acute monocytic leukaemia cells), membrane preparation
T1 sequence (P41597 1-360 isoform P41597-2): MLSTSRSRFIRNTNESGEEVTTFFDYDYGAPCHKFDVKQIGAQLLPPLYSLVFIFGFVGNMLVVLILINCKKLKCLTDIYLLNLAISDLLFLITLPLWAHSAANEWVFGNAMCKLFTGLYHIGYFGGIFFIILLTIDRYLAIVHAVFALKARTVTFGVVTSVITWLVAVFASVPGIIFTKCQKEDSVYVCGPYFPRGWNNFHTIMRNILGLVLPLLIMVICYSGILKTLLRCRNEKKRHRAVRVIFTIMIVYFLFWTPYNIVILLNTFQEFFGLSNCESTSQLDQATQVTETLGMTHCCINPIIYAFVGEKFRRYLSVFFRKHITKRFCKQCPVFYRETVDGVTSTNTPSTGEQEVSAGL
Description: The above exemplary substances have been tested for binding to CCR2 using a binding assay as outlined herein below:
THP-1 cells (human acute monocytic leukaemia cells) were cultured under standardized conditions at 37° C. and 5% CO2 in a humidified incubator. THP-1 cells were cultivated in RPMI 1640 medium (Gibco 21875) containing 1% MEM-NEAA (Gibso 11140) 2 mM L-glutamine, 1.5 g/L sodium bicarbonate, 4.5 g/L glucose, 10 mM HEPES and 1.0 mM sodium pyruvate, 90%; 10% fetal calf serum (FCS Gibco 10500-064).
Membranes were prepared from THP-1 cells. THP-1 cells were centrifuged at 300×g at 4° C. for 10 min. The cell pellet was resuspendet in Phosphate Buffer Saline (PBS, including 10 μM Pefabloc and a protease inhibitor mix ‘complete’, Boehringer Mannheim (1 tablet/50 ml)), to a concentration of […]. The membrane preparation was performed by disrupting the cells by nitrogen […] (at 50 bar, for 1 h) in a “Nitrogen Bombe” (Parr Instrument). Cell debris was removed by centrifugation (800×g at 4° C., 1 min) The supernatant was centrifuged at 80000×g, 4° C. for 30 min to sediment the cell membranes. Usually 50 mg of protein (Bradford assay) were yielded from 1×10E9 cells. The membranes were resuspendet in 25 mM HEPES, 25 mM MgCl2, 1 mM CaCl2, 10% Glycerine for storage in aliquots at −80° C. in 25 mM HEPES, 25 mM MgCl2, 1 mM CaCl2, 10% Glycerine and stored at −80° C.
(§1) Receptor Membrane Binding Assay:
Perkin Elmer NEX 332 Jod^125 MCP-1, Stock: 2200 Ci/mmol solved in 2000 μl assay buffer, stored at −20° C. THP-1 membrane were adjusted with 25 mM HEPES, pH 7.2; 5 mM MgCl2; 0.5 mM CaCl2; 0.2% BSA assay buffer to a concentration of 2.5 μg/15 μl. Amersham Biosciences PVT-WGA Beads (RPNQ0001) were adjusted with assay buffer to a concentration of 0.24 mg/30 μl. For preparation of the membrane-bead-suspension membranes and beads were incubated for 30 min at RT under rotation (60 rpm) with a ratio of 1:2. Test compounds dissolved in 100% DMSO to a concentration of 10 mM and are further diluted with 100% DMSO to 1 mM. All additional compound dilutions were obtained with assay buffer, final 1% DMSO. Compounds, membrane-bead-suspension and [^125I]MCP-1 (ca. 25000 cpm/10 μl) were incubated. Bound radioactivity was determined by scintillation counter after 8 h. Determination of affinity of test compounds (dissociation constant hKi) is calculated by iterative fitting of experimental data using the “easy sys” program, which is based on law of mass action (Schittkowski K. (1994), Numerische Mathematik, Vol. 68, 129-142).

[2] = target: T2, human CCR5 (Homo sapiens, UniProt P51681); test: CCR5 receptor membrane binding assay ([125I]RANTES, CHO (Gα16) human CCR5 cell membranes, SPA beads); conditions: bound radioactivity after 6 h, read-out: hKi [nM] (CCR5)
T2 construct: expressed in transfected cells; host or cells: CHO cells co-expressing Gα16, under puromycin and zeocin selection; membrane preparation
Description: The above exemplary substances have been tested for binding to CCR5 using a binding assay as outlined herein below:
CHO, (Gα16) human CCR5 cells were cultured under standardized conditions at 37° C. and 5% CO2 in a humidified incubator. CHO (Gα16) human CCR5 cells were cultivated in Ham's F12 (Invitrogen; #31765068) supplemented with 10 μg/ml Puromycin (Invitrogen; #A11139-03), 200 μg/ml Zeocin (Invitrogen; #45-0003) and 10% FCS (Gibco; #10500-064).
Membranes were prepared from CHO (Gα16) human CCR5 cells. Cells were cultured on […] plates (Nunc; #166508) 2-3 days before membrane preparation (usually 80-100 plates to obtain 80 mg protein).
Cells were scraped off the plates with a big scraper and washed with 2×5 ml ice cold Phosphate Buffer Saline (PBS; Invitrogen; #14040-174). Cell suspension was collected in a glass bottle (on ice). Cell suspension was harvested at 1400 rpm and 4° C. for 10 min and washed in PBS. Cell pellet was resuspended in 40 ml PBS with protease inhibitor mix ‘complete’ (Roche; #11873580001; 1 tablet/50 ml).
For gentle cell disruption the membrane preparation was performed by using a homogenizer (potter). Cells were homogenized for 5-10 min.
Membranes were centrifuged at 1000 rpm and 4° C. for 5 min Supernatant (=membrane) was harvested in a new falcon tube and remaining cell pellet homogenized again for 5-10 min with PBS with protease inhibitor mix and centrifuged. Collected supernatant was centrifuged at 40000 rpm and 4° C. for 30 min to sediment the cell membranes.
The membranes were resuspended in 25 mM HEPES, 25 mM MgCl2, 1 mM CaCl2, 10% Glycerine for storage in aliquots at −80° C. Membranes were diluted to a concentration of 5 mg/ml (Bradford Assay).
as §1
[^125I]RANTES, Stock: 1825 Ci/mmol, 25 μCi (Bio Trend #A3-AI-676) was solved in 1000 μl assay buffer (100 mM NaCl; 10 mM MgCl2; 50 mM Tris-HCl; 1 mM EDTA; 0.1% BSA, pH 7.6), stored at −20° C.
CHO (Gα16) human CCR5 membrane were solved on ice and adjusted with assay buffer to a concentration of 2.5 μg/15 μl.
Amersham Biosciences PVT-WGA Beads (GE Healthcare; #RPNQ0001) were adjusted with assay buffer to a concentration of 8 mg/ml. For preparation of the membrane-bead-suspension, membranes and beads were incubated for 30 min at RT under rotation with a ratio of 1:2.
Test compounds dissolved in 100% DMSO to a concentration of 10 mM and are further diluted with 100% DMSO to 1 mM. All additional compound dilutions were obtained with assay buffer, final 1% DMSO. 7 μl compound dilution, 45 μl membrane-bead-suspension and 10 μl [^125I]RANTES (ca. 20000 cpm/10 μl) were incubated at RT. Bound radioactivity was determined by scintillation counter after 6 h. Determination of affinity of test compounds (dissociation constant Ki) is calculated by iterative fitting of experimental data using the “easy sys” program, which is based on law of mass action (Schittkowski K. (1994), Numerische Mathematik, Vol. 68, 129-142).

T2 sequence (P51681 whole entry): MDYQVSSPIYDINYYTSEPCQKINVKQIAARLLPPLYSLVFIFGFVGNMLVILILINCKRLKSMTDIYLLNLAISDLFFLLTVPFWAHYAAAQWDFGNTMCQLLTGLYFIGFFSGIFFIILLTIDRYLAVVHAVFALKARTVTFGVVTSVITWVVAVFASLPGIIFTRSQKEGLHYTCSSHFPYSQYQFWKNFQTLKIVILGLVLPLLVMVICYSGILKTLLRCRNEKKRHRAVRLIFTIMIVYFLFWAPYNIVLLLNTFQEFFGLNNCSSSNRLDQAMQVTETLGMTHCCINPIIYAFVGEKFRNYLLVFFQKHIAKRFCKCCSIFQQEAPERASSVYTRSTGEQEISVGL

- Ki [1]: 2 nM
SMILES: Cc1c(Nc2ccc(Cl)c(Cl)c2)nc(CF)nc1C(=O)N1CCC(N2CCC(N(C)S(C)(=O)=O)CC2)CC1 [Example 36]

- Ki [2]: 1370 nM
- Ki [1]: 8 nM
SMILES: Cc1c(Nc2ccc(Cl)c(Cl)c2)nc(CF)nc1C(=O)N1CCC(N[C@@H]2CCOC[C@@H]2F)CC1 [Example 37]

- Ki [1]: 19 nM
SMILES: CC(=O)N1CCC(c2nc(Nc3ccc(Cl)c(Cl)c3)c(C)c(C(=O)N3CCC(N[C@H]4CCOC[C@H]4F)CC3)n2)CC1 [Example 43]

- Ki [2]: 190 nM
- Ki [1]: 4 nM
SMILES: CO[C@H]1COCC[C@H]1NC1CCN(C(=O)c2nc(C(F)F)nc(N3CCc4ccc(C(F)(F)F)cc4C3)c2C)CC1 [Example 34]

- Ki [1]: 17 nM
SMILES: CC(=O)N1CCC(c2nc(Nc3ccc(Cl)c(Cl)c3)c(C)c(C(=O)N3CCC(N[C@@H]4CCOC[C@@H]4F)CC3)n2)CC1 [Example 42]

- Ki [1]: 5 nM
SMILES: CO[C@H]1COCC[C@H]1NC1CCN(C(=O)c2cc(NC[C@H]3CCC[C@@H](c4ccc(C)cc4)O3)nc(CF)n2)CC1 [Example 32]

- Ki [1]: 4 nM
SMILES: CO[C@@H]1COCC[C@@H]1NC1CCN(C(=O)c2cc(NC[C@H]3CCC[C@@H](c4ccc(SC)cc4)O3)nc(CF)n2)CC1 [Example 39]

- Ki [1]: 2 nM
SMILES: CO[C@H]1COCC[C@H]1NC1CCN(C(=O)c2cc(NC[C@H]3CCC[C@@H](c4ccc(SC)cc4)O3)nc(CF)n2)CC1 [Example 41]

- Ki [1]: 37 nM
SMILES: Cc1c(Nc2ccc(Cl)c(Cl)c2)nc(CF)nc1C(=O)N1CCC(N2CCOCC2)CC1 [Example 38]

- Ki [1]: 4 nM
SMILES: CO[C@@H]1COCC[C@@H]1NC1CCN(C(=O)c2nc(C3CCN(C(C)=O)CC3)nc(Nc3ccc(Cl)c(Cl)c3)c2C)CC1 [Example 44]

- Ki [1]: 7 nM
SMILES: Cc1c(C(=O)N2CCC(NC3CCOCC3)CC2)nc(C(F)(F)F)nc1N1CCc2ccc(C(F)(F)F)cc2C1 [Example 33]

Second part, the compound before the results:

SMILES: CO[C@@H]1COCC[C@@H]1NC1CCN(C(=O)c2nc(-c3cc(C)on3)nc(NC[C@H]3CCC[C@@H](c4ccc(C(F)(F)F)cc4)O3)c2C)CC1 [Example 22]
- Ki [1]: 0.7 nM

SMILES: Cc1cc(-c2nc(C(=O)N3CCC(N[C@H]4CCOC[C@H]4F)CC3)c(C)c(N3CCc4cc(C(F)(F)F)ccc4C3)n2)no1 [Example 9]
- Ki [2]: 3400 nM
- Ki [1]: 38 nM

SMILES: Cc1c(C(=O)N2CCC(N[C@@H]3CCOC[C@@H]3F)CC2)nc(C2CCOCC2)nc1N1CCc2ccc(C(F)(F)F)cc2C1 [Example 14]
- Ki [2]: 2090 nM
- Ki [1]: 3 nM

SMILES: CO[C@@H]1COCC[C@@H]1NC1CCN(C(=O)c2nc(C3CCOCC3)nc(N3CCc4cc(C(F)(F)F)ccc4C3)c2C)CC1 [Example 4]
- Ki [2]: 310 nM
- Ki [1]: 2 nM

SMILES: CO[C@H]1COCC[C@H]1NC1CCN(C(=O)c2nc(CF)nc(N3CCc4ccc(C(F)(F)F)cc4C3)c2C)CC1 [Example 18]
- Ki [2]: 460 nM
- Ki [1]: 5 nM

SMILES: CO[C@@H]1COCC[C@@H]1NC1CCN(C(=O)c2nc(CF)nc(N3CCc4ccc(C(F)(F)F)cc4C3)c2C)CC1 [Example 17]
- Ki [2]: 180 nM
- Ki [1]: 2 nM

SMILES: Cc1cc(-c2nc(NC[C@H]3CCC[C@@H](c4ccc(C(F)(F)F)cc4)O3)c(C)c(C(=O)N3CCC(N[C@@H]4CCOC[C@@H]4F)CC3)n2)no1 [Example 24]
- Ki [2]: 50 nM
- Ki [1]: 1 nM

SMILES: Cc1c(C(=O)N2CCC(N[C@H]3CCOC[C@H]3F)CC2)nc(C2CCOCC2)nc1N1CCc2ccc(C(F)(F)F)cc2C1 [Example 13]
- Ki [2]: 1300 nM
- Ki [1]: 5 nM

SMILES: CO[C@@H]1COCC[C@@H]1NC1CCN(C(=O)c2cc(NC[C@H]3CCC[C@@H](c4ccc(C)cc4)O3)nc(CF)n2)CC1 [Example 30]
- Ki [1]: 3 nM

SMILES: Cc1c(NC[C@H]2CCC[C@@H](c3ccc(C(F)(F)F)cc3)O2)nc(C2CCOCC2)nc1C(=O)N1CCC(N[C@@H]2CCOC[C@@H]2F)CC1 [Example 15]
- Ki [2]: 270 nM
- Ki [1]: 3 nM

SMILES: Cc1c(C(=O)N2CCC(N[C@H]3CCOC[C@H]3F)CC2)nc(C2CCOCC2)nc1N1CCc2cc(C(F)(F)F)ccc2C1 [Example 5]
- Ki [2]: 4580 nM
- Ki [1]: 14 nM

SMILES: CO[C@@H]1COCC[C@@H]1NC1CCN(C(=O)c2nc(-c3cc(C)on3)nc(N3CCc4ccc(C(F)(F)F)cc4C3)c2C)CC1 [Example 29]
- Ki [2]: 53 nM
- Ki [1]: 2 nM

SMILES: CO[C@H]1COCC[C@H]1NC1CCN(C(=O)c2nc(-c3cc(C)on3)nc(N3CCc4ccc(C(F)(F)F)cc4C3)c2C)CC1 [Example 26]
- Ki [2]: 130 nM
- Ki [1]: 5 nM

SMILES: CO[C@@H]1COCC[C@@H]1NC1CCN(C(=O)c2nc(C3CCOCC3)nc(N3CCc4ccc(C(F)(F)F)cc4C3)c2C)CC1 [Example 12]
- Ki [2]: 46 nM
- Ki [1]: 0.6 nM

SMILES: Cc1c(Nc2ccc(Cl)c(Cl)c2)nc(CF)nc1C(=O)N1CCC(NC2CCOCC2F)CC1 (centres unmarked) [Example 19]
- Ki [2]: 350 nM
- Ki [1]: 3 nM

SMILES: CO[C@H]1COCC[C@H]1NC1CCN(C(=O)c2nc(-c3cc(C)on3)nc(NC[C@H]3CCC[C@@H](c4ccc(C(F)(F)F)cc4)O3)c2C)CC1 [Example 25]
- Ki [1]: 1 nM

SMILES: Cc1ccc([C@@H]2CCC[C@H](CNc3cc(C(=O)N4CCC(NC5CCOCC5F)CC4)nc(CF)n3)O2)cc1 (some centres unmarked) [Example 31]
- Ki [1]: 15 nM

SMILES: Cc1cc(-c2nc(NC[C@H]3CCC[C@@H](c4ccc(C(F)(F)F)cc4)O3)c(C)c(C(=O)N3CCC(N[C@H]4CCOC[C@H]4F)CC3)n2)no1 [Example 23]
- Ki [1]: 1 nM

Reference: US9108958B2, “Selective CCR2 antagonists” (Boehringer Ingelheim International GmbH, priority 2011, dated 2015)
